Nine compounds from ChEMBL document CHEMBL1130624, “In vitro inhibitory effects of DNA topoisomerase II by fernane-type triterpenoids isolated from a Euphorbia genus” (Bioorg Med Chem Lett, 1998) can be followed below.

The source made the active and inactive calls. No cut-off for these calls is given here.

Type in all cases: protein assay
Assay [1] concerns the target T1, DNA topoisomerase II (Homo sapiens) (UniProt P11388+Q02880). Put plainly: Compound was tested in vitro for inhibitory effect on DNA topoisomerase II activity at a concentration of 100 uM; No inhibition.
In assay [2] the target is T1, DNA topoisomerase II (Homo sapiens). Put plainly: Compound was tested in vitro for inhibitory effect on DNA topoisomerase II activity at a concentration of 100 uM; […].
For assay [3] the target is unchanged. Put plainly: Compound was tested in vitro for inhibitory effect on DNA topoisomerase II activity at a concentration of 12.5 uM; Evidence inhibition.
The target is the same in assay [4]. As to the kind of experiment: Compound was tested in vitro for inhibitory effect on DNA topoisomerase II activity at a concentration of 25 uM; […].
Assay [5] shares this target. Put plainly: Compound was tested in vitro for inhibitory effect on DNA topoisomerase II activity at a concentration of 3.2 uM; No inhibition.
Assay [6] has the same target. Put plainly: Compound was tested in vitro for inhibitory effect on DNA topoisomerase II activity at a concentration of 50 uM; […].
Assay [7] shares this target. Put plainly: Compound was tested in vitro for inhibitory effect on DNA topoisomerase II activity at a concentration of 6.3 uM; Slight inhibition.
For assay [8] the target is unchanged. Put plainly: Compound was tested in vitro for inhibitory effect on DNA topoisomerase II activity at a concentration of 12.5 uM; No inhibition.
Assay [9] has the same target. Put plainly: Compound was tested in vitro for inhibitory effect on DNA topoisomerase II activity at a concentration of 25 uM; No inhibition.
Assay [10] shares this target. Put plainly: Compound was tested in vitro for inhibitory effect on DNA topoisomerase II activity at a concentration of 50 uM; Slight inhibition.
The target is the same in assay [11]. As to the kind of experiment: Compound was tested in vitro for inhibitory effect on DNA topoisomerase II activity at a concentration of 6.3 uM; No inhibition.
Assay [12] has the same target. As to the kind of experiment: Compound was tested in vitro for inhibitory effect on DNA topoisomerase II activity at a concentration of 100 uM; Evidence inhibition.

On to `CC(C)[C@H]1CC[C@@H]2[C@]1(C)CC[C@]1(C)C3=C(C(=O)C[C@@]21C)[C@@]1(C)CC[C@H](O)C(C)(C)C1CC3=O` (some centres undefined), for which the outcome in assay [1] was inactive.

In the case of `C=C(C)[C@@H]1CC[C@@H]2C(=CC[C@@]3(C)[C@@H]4CC[C@H](C(C)C)[C@@]4(C)CC[C@]23C)[C@@]1(C)CCC(=O)O`, the Activity result in [2] is “Slight inhibition”; in assay [3], “Evidence inhibition”; in assay [4] it was “Slight inhibition”; in assay [6], “Slight inhibition”; in [7], “Slight inhibition”. Besides, the result in [5] was inactive.

For the compound `CC(C)[C@H]1CC[C@@H]2[C@]1(C)CC[C@]1(C)C3=C([C@H](O)C[C@@]21C)[C@@]1(C)CC[C@H](O)C(C)(C)C1CC3=O` (some centres undefined), the result in [1] was inactive.

For the compound `CC(C)[C@H]1CC[C@@H]2[C@]1(C)CC[C@]1(C)C3=C(CC[C@@]21C)[C@@]1(C)CC[C@H](O)C(C)(C)C1CC3` (some centres undefined), in [1], the outcome was inactive.

In the case of `COc1cc([C@@H]2c3cc4c(cc3[C@@H](O[C@@H]3O[C@@H]5CO[C@@H](C)O[C@H]5[C@H](O)[C@H]3O)[C@H]3COC(=O)[C@H]23)OCO4)cc(OC)c1O`, the result in assay [8], in assay [9], in [5] and in assay [11] was inactive. The Activity entry in assay [10] was “Slight inhibition”; in assay [12], “Evidence inhibition”.

As for `C=C(C)[C@@H]1CC[C@@H]2C(=CC[C@@]3(C)[C@@H]4CC[C@H](C(C)C)[C@@]4(C)CC[C@]23C)[C@@]1(C)CCC(=O)OCc1ccccc1`, the result in assay [8], in assay [9], in assay [5] and in assay [11] was inactive. In addition, the Activity entry is “Slight inhibition” in [10] and “Evidence inhibition” in [12].

On to `C=C(C)[C@@H]1CC[C@@H]2C(=CC[C@@]3(C)[C@@H]4CC[C@H](C(C)C)[C@@]4(C)CC[C@]23C)[C@@]1(C)CCC(=O)OC`, for which the result in assay [1] was inactive.

Regarding `CC(C)[C@H]1CC[C@@H]2[C@]1(C)CC[C@]1(C)C3=C(C(=O)C[C@@]21C)[C@@]1(C)CC[C@H](O)C(C)(C)C1C[C@@H]3O` (some centres undefined), in assay [1], the outcome was inactive.

Take `C=C(C)[C@@H]1CC[C@@H]2C(=CC[C@@]3(C)[C@@H]4CC[C@H](C(C)C)[C@@]4(C)CC[C@]23C)[C@@]1(C)CCCO`: the Activity result in assay [2] is listed as “Slight inhibition”; in assay [3], “Evidence inhibition”; in [4], “Slight inhibition”; in assay [6] it was “Slight inhibition”; in assay [7], “Slight inhibition”. The outcome in [5] was inactive.
